Reference: patent US20100292472A1, “PROPHYLACTIC AND THERAPEUTIC MEDICINE FOR MALARIA” (priority 2008, published 2010)
Like-named read-outs stand apart in the source and are kept apart here.

Tests used:
[1] = Mice; Reported Data; cited from earlier work
[2] = system: T. gondii strain 2F tachyzoites; assay: Test for growth inhibitory activity against T. gondii (β-gal colorimetric proliferation assay in Vero cells); assay type: cell-based, Toxoplasma gondii; settings: T. gondii 2F tachyzoites in Vero cells, 2 days
Description: To investigate growth inhibitory activity against T. gondii, the following various compounds were tested: inabenfide (Wako Pure Chemicals, Osaka, Japan), paclobutrazol (Wako Pure Chemicals, Osaka, Japan), uniconazole P (Wako Pure Chemicals, Osaka, Japan) and AMO-1618 (CALBIOCHEM, La Jolla, Calif.) as gibberellin inhibitors; thidiazuron (Wako Pure Chemicals, Osaka, Japan) and 6-benzyl aminopurine (Wako Pure Chemicals, Osaka, Japan) as cytokinins; and α-aminooxy acetic acid (Wako Pure Chemicals, Osaka, Japan) as an ethylene inhibitor.
For this test, T. gondii strain 2F tachyzoites were used. The strain 2F was established by transfection of the T. gondii strain RH with a β-galactosidase gene (β-gal, derived from Escherichia coli) [Reference: J. M. Dobrowolski and L. D. Sibley. Toxoplasma invasion of mammalian cells is powered by the actin cytoskeleton of the parasite. Cell 84, 933-939 (1996)]. The 2F strain was kindly provided by Dr. L. David Sibley (Washington University School of Medicine, St. Louis, Mo., US). As a host cell for the parasites, Vero cells were used. Vero cell cultures were incubated with RPMI 1640 medium containing 10% (v/v) FCS in 96-well plates for 2 days and then infected with 2.5×10^5 tachyzoites/well in RPMI 1640 medium containing 3% (v/v) FCS and various concentrations of the compounds. The tachyzoites were harvested after 2 days and the proliferation rate was monitored as a measure of β-gal activity in a colorimetric assay using chlorophenol red β-D-galactopyranoside. The proliferation rate of compound-untreated tachyzoites is set to 100% and the IC50 means the concentration of the compound that inhibits the proliferation rate by 50%.

[3] = Reported Data; cited from earlier work
P. falciparum strain 3D7 = assay: Test for growth inhibitory activity against P. falciparum (infected erythrocytes, Giemsa thin blood film); assay type: cell-based, Plasmodium falciparum; settings: for EC50: read-out: ED50 (50% growth inhibition concentration, EC50)
Description: To investigate growth inhibitory activity against a laboratory strain 3D7 of P. falciparum, the following various compounds were tested: inabenfide (Wako Pure Chemicals, Osaka, Japan), uniconazole P (Wako Pure Chemicals, Osaka, Japan), paclobutrazol (Wako Pure Chemicals, Osaka, Japan), AMO-1618 (CALBIOCHEM, La Jolla, Calif.) and FC-907 as gibberellin inhibitors; thidiazuron (Wako Pure Chemicals, Osaka, Japan), 6-benzyl aminopurine (Wako Pure Chemicals, Osaka, Japan), trans-zeatin (Wako Pure Chemicals, Osaka, Japan) and cis-zeatin (Sigma) as cytokinins; and α-aminooxy acetic acid (Wako Pure Chemicals, Osaka, Japan) as an ethylene inhibitor.
As a culture medium for the P. falciparum strain 3D7, filter-sterilized RPMI 1640 (pH 7.4) containing 10% (v/v) human serum and human erythrocytes at 3% hematocrit (the ratio of erythrocytes in a suspension thereof) was prepared. Each compound was dissolved at predetermined concentrations in an appropriate solvent (water, ethanol or DMSO) and added to wells. To each well, 3D7-infected erythrocytes were added at a starting parasitemia of 0.1% and the total volume was adjusted to 2.5 ml with the culture medium. The plates were incubated for 3 days. Control cultures were prepared so that instead of each compound solution, the equal volume of the corresponding solvent alone was contained, and similarly incubated. After the incubation, a thin blood film from each culture was prepared and stained with Giemsa (E. Merck, Germany). A total of 3000-erythrocytes/1 thin blood film were examined microscopically (immersed in oil, magnified to 1000 times), after which the malarial infection rate was determined using the equation below. The culture was maintained at 37° C. in a CO2—O2—N2 incubator (5% CO2, 5% O2, and 90% N2 atmosphere). The experiments were performed at least twice and each treatment was performed in triplicate. By comparison of the malarial infection rates obtained in control and compound-treated samples, the efficacy of each compound was assessed.
Malarial infection rate=[(number of infected erythrocytes)/(total number of examined erythrocytes)]×100
For compounds showing growth inhibitory activity, the 50% growth inhibition concentration (EC50) was calculated using the following equation.
X1: concentration of the compound showing <50% inhibition rate (μM) Y1: inhibition rate at the concentration X1 X2: concentration of the compound showing >50% inhibition rate (μM) Y2: inhibition rate at the concentration X2

[4] = Plasmodium falciparum, 3D7, Erythrocyte, 72 h
[5] = P. falciparum 3D7, 3 days incubation, Table 1

For `O=C(Nc1ccccc1)Nc1cnns1` [Thidiazuron, thidiazuron], the LD50 [1] is given as greater than 5000 mg/kg, the IC50 ([2]; Toxoplasma gondii, 48 h) is given as 74.5 µM and the Mutagenesis [3] is given as “No”. The EC50 (P. falciparum strain 3D7; [4]) was 17.5 µM.
For `CC(C)(C)[C@@H](O)[C@@H](Cc1ccc(Cl)cc1)n1cncn1` [Paclobutrazol, paclobutrazol], the LD50 [1] is given as greater than 5000 mg/kg, the IC50 ([2]; Toxoplasma gondii, 48 h) is given as 121 µM and the EC50 (P. falciparum strain 3D7; [4]) is given as 27.1 µM.
With `CC1=CCCC(C)(C)C1C=CC(C)[N+](C)(C)C` (stereo not drawn) [FC-907, N,N,N-trimethyl-1-methyl-(2′,6′,6′-trimethylcyclohex-2′-en-1′-yl) prop-2-enylammonium iodide] the EC50 (P. falciparum strain 3D7; [5]) was 4.26 µM.
For `C/C(=C\CNc1ncnc2nc[nH]c12)CO` [trans-Zeatin, trans-zeatin], the LD50 [1] is listed as 1300 mg/kg and the EC50 (P. falciparum strain 3D7; [5]) is listed as 651 µM.
In the case of `O=C(Nc1ccc(Cl)cc1C(O)c1ccccc1)c1ccncc1` (stereo not drawn) [Inabenfide, inabenfide], the LD50 [1] is given as greater than 15000 mg/kg, the IC50 ([2]; Toxoplasma gondii, 48 h) is given as 17 µM and the Mutagenesis [3] is given as “No”. The EC50 (P. falciparum strain 3D7; [4]) was 4.47 µM.
`C/C(=C/CNc1ncnc2nc[nH]c12)CO` [cis-Zeatin, cis-zeatin] gave an EC50 (P. falciparum strain 3D7; [5]) of 742 µM.
For `c1ccc(CNc2ncnc3nc[nH]c23)cc1` [6-Benzylaminopurine, 6-benzyl aminopurine], the LD50 [1] is listed as 1300 mg/kg, the IC50 ([2]; read-out: IC50 Toxoplasma) is listed as greater than 300 µM and the Mutagenesis [3] is listed as “No”. It also gave an EC50 (P. falciparum strain 3D7; [5]) of 19 µM.
`NOCC(=O)O` [α-Aminooxy acetic Acid, α-aminooxy acetic acid] showed an IC50 ([2]; Toxoplasma gondii, 48 h) of 96.9 µM and an EC50 (P. falciparum strain 3D7; [4]) of 20.3 µM.
In the case of `Cc1cc(OC(=O)N2CCCCC2)c(C(C)C)cc1[N+](C)(C)C.[Cl-]` [AMO-1618], the LD50 [1] is listed as 0.36 mg/kg, the IC50 ([2]; read-out: IC50 Toxoplasma) is listed as greater than 1000 µM and the EC50 (P. falciparum strain 3D7; [5]) is listed as 10.3 µM. For the same compound, the “growth inhibition rate (Y1)” value (P. falciparum strain 3D7; concentration 10 μM (X1), FIG. 1) was 48.9 and the “growth inhibition rate (Y2)” value (P. falciparum strain 3D7; concentration 20 μM (X2), FIG. 1) was 85.4.
In the case of `CC(C)(C)[C@H](O)/C(=C\c1ccc(Cl)cc1)n1cncn1` [Uniconazole P, uniconazole P], the LD50 [1] is given as 1000 mg/kg, the IC50 ([2]; read-out: IC50 Toxoplasma) is given as 97.4 µM and the Mutagenesis [3] is given as “No”. For the same compound, the EC50 (P. falciparum strain 3D7; [5]) was 25 µM.
